From ChEMBL document CHEMBL1159092, “Polar 3-alkylidene-5-pivaloyloxymethyl-5'-hydroxymethyl-gamma-lactones as protein kinase C ligands and antitumor agents” (Bioorg Med Chem Lett, 2010)
Values after ≈ are worked out from the molar mass of the structure shown.

Assays:
[1] = Antitumor activity against human Hs 578T cells; type: functional
[2] = tested on: COLO 205; assay: Antitumor activity against human COLO205 cells; type: functional
[3] = tested on: SK-MEL-5; assay: Antitumor activity against human SK-MEL-5 cells; type: functional
[4] = Antitumor activity against human NCI-H322 cells; type: functional
[5] = biological target: Protein kinase C alpha type (Homo sapiens, UniProt P17252); assay: Displacement of [20-3H]phorbol 12,13-dibutyrate from recombinant PKCalpha
[6] = tested on: K562; assay: Antitumor activity against human K562 cells; type: functional
[7] = tested on: MOLT-4F; assay: Antitumor activity against human MOLT4F cells; type: functional
[8] = tested on: CCRF-CEM; assay: Antitumor activity against human CCRF-CEM cells; type: functional
[9] = tested on: HL-60; assay: Antitumor activity against human HL60 cells; type: functional

| SMILES | GI50 [1] | GI50 [2] | GI50 [3] | GI50 [4] | Ki [5] | GI50 [6] | GI50 [7] | GI50 [8] | GI50 [9] |
| --- | --- | --- | --- | --- | --- | --- | --- | --- | --- |
| COC(=O)CCCCCCCCCCCCCC/C=C1\CC(CO)(COC(=O)C(C)(C)C)OC1=O (stereo not given) | > 10 µg/mL | 3.86 µg/mL (≈ 7.77 µM) | 7.8 µg/mL (≈ 15.7 µM) | > 10 µg/mL | 6.83 nM | 0.856 µg/mL (≈ 1.72 µM) | > 10 µg/mL | 0.691 µg/mL (≈ 1.39 µM) | > 10 µg/mL |
| CCCCCCCCCCCCC/C=C1\CC(CO)(COC(=O)C(C)(C)C)OC1=O (stereo not given) | 2.27 µg/mL (≈ 5.34 µM) | 0.253 µg/mL (≈ 0.596 µM) | 0.779 µg/mL (≈ 1.83 µM) | > 10 µg/mL | 7.83 nM | < 0.1 µg/mL | 0.227 µg/mL (≈ 0.535 µM) | 0.14 µg/mL (≈ 0.33 µM) | 2.4 µg/mL (≈ 5.65 µM) |
| COCCOCOCCCCCCC/C=C1\CC(CO)(COC(=O)C(C)(C)C)OC1=O (stereo not given) |  |  |  |  | 323 nM |  |  |  |  |
| CCCCCCCCCOCCC/C=C1\CC(CO)(COC(=O)C(C)(C)C)OC1=O (stereo not given) |  |  |  |  | 7.44 nM |  |  |  |  |
| COCCCCCCCCCCC/C=C1\CC(CO)(COC(=O)C(C)(C)C)OC1=O (stereo not given) | 7.34 µg/mL (≈ 17.2 µM) | 0.541 µg/mL (≈ 1.27 µM) | 2.81 µg/mL (≈ 6.58 µM) | > 10 µg/mL | 8.2 nM | 0.516 µg/mL (≈ 1.21 µM) | 2.38 µg/mL (≈ 5.59 µM) | 0.701 µg/mL (≈ 1.64 µM) | 5.22 µg/mL (≈ 12.2 µM) |
| CC(=O)OCCCCCCCCCCCCCCC/C=C1\CC(CO)(COC(=O)C(C)(C)C)OC1=O (stereo not given) | > 10 µg/mL | 2.1 µg/mL (≈ 4.11 µM) | 5.62 µg/mL (≈ 11 µM) | > 10 µg/mL | 9.3 nM | 0.959 µg/mL (≈ 1.88 µM) | 1.55 µg/mL (≈ 3.03 µM) | 7.55 µg/mL (≈ 14.8 µM) | > 10 µg/mL |
| COc1cccc2c1C(=O)c1c(O)c3c(c(O)c1C2=O)C[C@@](O)(C(=O)CO)C[C@@H]3O[C@H]1C[C@H](N)[C@H](O)[C@H](C)O1.Cl [DOXORUBICIN HYDROCHLORIDE] | 0.596 µg/mL | 0.523 µg/mL | 0.481 µg/mL | 0.615 µg/mL |  | 0.375 µg/mL | 0.277 µg/mL | 0.181 µg/mL | 0.413 µg/mL |
| COCCCCCCC/C=C1\CC(CO)(COC(=O)C(C)(C)C)OC1=O (stereo not given) |  |  |  |  | 191 nM |  |  |  |  |
| CC(C)(C)C(=O)OCC1(CO)C/C(=C\CCCCCCCCCCCCCCCN=[N+]=[N-])C(=O)O1 (stereo not given) |  |  |  |  | 15.6 nM |  |  |  |  |
| CC(C)(C)C(=O)OCC1(CO)C/C(=C\CCCCCCC=O)C(=O)O1 (stereo not given) |  |  |  |  | 39.3 nM |  |  |  |  |
| CC(C)(C)C(=O)OCC1(CO)C/C(=C\CCCCCCCCCCCCCCCN)C(=O)O1 (stereo not given) | > 10 µg/mL | 1.53 µg/mL (≈ 3.28 µM) | 5.1 µg/mL (≈ 10.9 µM) | 8.43 µg/mL (≈ 18 µM) | 36.4 nM | 1.52 µg/mL (≈ 3.25 µM) | 3.17 µg/mL (≈ 6.77 µM) | 2.82 µg/mL (≈ 6.03 µM) | > 10 µg/mL |
| CC(C)(C)C(=O)OCC1(CO)C/C(=C\CCCCCCCOC2CCCC2)C(=O)O1 (stereo not given) |  |  |  |  | 10.2 nM |  |  |  |  |
| CCCCCCCCC(O)CCCCCC/C=C1\CC(CO)(COC(=O)C(C)(C)C)OC1=O (stereo not given) | > 10 µg/mL | 8.91 µg/mL (≈ 19 µM) | > 10 µg/mL | > 10 µg/mL | 118 nM | 7.3 µg/mL (≈ 15.6 µM) | 7.91 µg/mL (≈ 16.9 µM) | 5.71 µg/mL (≈ 12.2 µM) | > 10 µg/mL |
| CC(C)(C)C(=O)OCC1(CO)C/C(=C\CCCCCCCO)C(=O)O1 (stereo not given) |  |  |  |  | 378 nM |  |  |  |  |
| CCCCCOCCCCCCC/C=C1\CC(CO)(COC(=O)C(C)(C)C)OC1=O (stereo not given) | 3 µg/mL (≈ 7.04 µM) | 0.491 µg/mL (≈ 1.15 µM) | 2.99 µg/mL (≈ 7.02 µM) | 9.52 µg/mL (≈ 22.3 µM) | 8.1 nM | 1.15 µg/mL (≈ 2.69 µM) | 1.03 µg/mL (≈ 2.41 µM) | 0.877 µg/mL (≈ 2.06 µM) | 2.96 µg/mL (≈ 6.94 µM) |
| COCCCCCCCCCCCCCCC/C=C1/CC(CO)(COC(=O)C(C)(C)C)OC1=O (stereo not given) | 6.77 µg/mL (≈ 14 µM) | 0.178 µg/mL (≈ 0.369 µM) | 2.13 µg/mL (≈ 4.42 µM) | > 10 µg/mL | 5 nM | 0.138 µg/mL (≈ 0.286 µM) | 1.64 µg/mL (≈ 3.4 µM) | < 0.1 µg/mL | 3.97 µg/mL (≈ 8.22 µM) |

| SMILES | GI50 [1] | GI50 [2] | GI50 [3] | GI50 [4] | Ki [5] | GI50 [6] | GI50 [7] | GI50 [8] | GI50 [9] |
| --- | --- | --- | --- | --- | --- | --- | --- | --- | --- |
| CCCCCCCCCOCCCCCCC/C=C1\CC(CO)(COC(=O)C(C)(C)C)OC1=O (stereo not given) | 4.64 µg/mL (≈ 9.61 µM) | 0.264 µg/mL (≈ 0.547 µM) | 1.43 µg/mL (≈ 2.96 µM) | > 10 µg/mL | 3.2 nM | 0.156 µg/mL (≈ 0.323 µM) | 2.14 µg/mL (≈ 4.43 µM) | 0.304 µg/mL (≈ 0.63 µM) | 4.53 µg/mL (≈ 9.37 µM) |
| CC(C)(C)C(=O)OCC1(CO)C/C(=C\CCCCCCCCCCCCCCCO)C(=O)O1 (stereo not given) |  |  |  |  | 6.4 nM |  |  |  |  |
| CC(C)CCOCCCCCCC/C=C1\CC(CO)(COC(=O)C(C)(C)C)OC1=O (stereo not given) |  |  |  |  | 7.74 nM |  |  |  |  |
| CCCCCCCCCCCCC/C=C1/CC(CO)(COC(=O)C(C)(C)C)OC1=O (stereo not given) |  |  |  |  | 7.15 nM |  |  |  |  |
| CC(C)(C)C(=O)OCC1(CO)C/C(=C/CCCCCCCCCCCCCCCO)C(=O)O1 (stereo not given) | > 10 µg/mL | 2.34 µg/mL (≈ 4.99 µM) | 5.34 µg/mL (≈ 11.4 µM) | > 10 µg/mL | 8.24 nM | 0.872 µg/mL (≈ 1.86 µM) | 1.37 µg/mL (≈ 2.93 µM) | 6.63 µg/mL (≈ 14.1 µM) | 6.39 µg/mL (≈ 13.6 µM) |
| CC(=O)NCCCCCCCCCCCCCCC/C=C1\CC(CO)(COC(=O)C(C)(C)C)OC1=O (stereo not given) | > 10 µg/mL | 4.74 µg/mL (≈ 9.29 µM) | > 10 µg/mL | > 10 µg/mL | 8.25 nM | 3.38 µg/mL (≈ 6.64 µM) | 6.35 µg/mL (≈ 12.5 µM) | 1.08 µg/mL (≈ 2.11 µM) | > 10 µg/mL |
| CC(C)(C)C(=O)OCC1(CO)C/C(=C\CCCCCCCCCCCCCCC=O)C(=O)O1 (stereo not given) | > 10 µg/mL | > 10 µg/mL | > 10 µg/mL | > 10 µg/mL | 6.38 nM | 5.11 µg/mL (≈ 10.9 µM) | > 10 µg/mL | 0.933 µg/mL (≈ 2 µM) | > 10 µg/mL |
| CC(C)(C)C(=O)OCCCCCCCCCCCCCCC/C=C1\CC(CO)(COC(=O)C(C)(C)C)OC1=O (stereo not given) | 5.24 µg/mL (≈ 9.48 µM) | 0.597 µg/mL (≈ 1.08 µM) | 3.46 µg/mL (≈ 6.25 µM) | > 10 µg/mL | 10.5 nM | 0.352 µg/mL (≈ 0.637 µM) | 0.605 µg/mL (≈ 1.09 µM) | > 10 µg/mL | 7.78 µg/mL (≈ 14.1 µM) |
| COC(=O)CCCCCC/C=C1\CC(CO)(COC(=O)C(C)(C)C)OC1=O (stereo not given) |  |  |  |  | 533 nM |  |  |  |  |
| CC(C)(C)C(=O)OCC1(CO)C/C(=C\CCCCCCCCCCCCCCC(=O)O)C(=O)O1 (stereo not given) |  |  |  |  | 29.7 nM |  |  |  |  |
| CC(C)(C)C(=O)OCC1(CO)C/C(=C\CCCCCCCCCCCO)C(=O)O1 (stereo not given) | > 10 µg/mL | 2.49 µg/mL (≈ 6.03 µM) | 5.81 µg/mL (≈ 14.1 µM) | > 10 µg/mL | 14.5 nM | 1.09 µg/mL (≈ 2.64 µM) | 1.34 µg/mL (≈ 3.26 µM) | 0.65 µg/mL (≈ 1.58 µM) | > 10 µg/mL |
| CC(C)(C)C(=O)OCC1(CO)C/C(=C/CCCCCCCCCCCCCCC=O)C(=O)O1 (stereo not given) | > 10 µg/mL | 5.14 µg/mL (≈ 11 µM) | > 10 µg/mL | > 10 µg/mL | 11.4 nM | 2.58 µg/mL (≈ 5.53 µM) | 2.02 µg/mL (≈ 4.33 µM) | > 10 µg/mL | > 10 µg/mL |
| CC(C)(C)C(=O)OCC1(CO)C/C(=C\CCCCCCCCCCCCCCCOC=O)C(=O)O1 (stereo not given) |  |  |  |  | 8 nM |  |  |  |  |
| CC(C)(C)C(=O)OCC1(CO)C/C(=C\CCCCCCCCCCC=O)C(=O)O1 (stereo not given) |  |  |  |  | 30.3 nM |  |  |  |  |
| COCCCCCCCCCCCCCCC/C=C1\CC(CO)(COC(=O)C(C)(C)C)OC1=O (stereo not given) | 5.45 µg/mL (≈ 11.3 µM) | 0.118 µg/mL (≈ 0.244 µM) | 1.75 µg/mL (≈ 3.63 µM) | > 10 µg/mL | 4.4 nM | 0.189 µg/mL (≈ 0.392 µM) | 0.498 µg/mL (≈ 1.03 µM) | 4.26 µg/mL (≈ 8.83 µM) | 4.65 µg/mL (≈ 9.64 µM) |
| COCOCCCCCCC/C=C1\CC(CO)(COC(=O)C(C)(C)C)OC1=O (stereo not given) | > 10 µg/mL | 2.01 µg/mL (≈ 5.01 µM) | 8.33 µg/mL (≈ 20.8 µM) | > 10 µg/mL | 198 nM | 3.69 µg/mL (≈ 9.22 µM) | 1.84 µg/mL (≈ 4.6 µM) | > 10 µg/mL | > 10 µg/mL |
